Measurements reported in PMC7618036, “An oral heme oxygenase inhibitor targets immunosuppressive perivascular macrophages in preclinical models of cancer” (Science translational medicine, 2025).

Legend:
MMTV-PyMT tumors [1] = assay: Tumor growth in MMTV-PyMT mice bearing established spontaneous tumors; assay type: in vivo, mouse; details: single agent, i.p. 25 µMol/kg/day
Experimental: Vertical dashed black lines mark the start of treatment (day 0) and horizontal red line marks 250 mm^3. Solid lines represent individual tumors and mice. Images in panel (A) and (B) were created using BioRender. ** P<0.01.
(D-G) The MMTV-PyMT mice in (B) were evaluated for evidence of toxicity, including weight change from treatment initiation (D), end of treatment (day 21) plasma ratio of AST:ALT enzymes (E), blood circulating immune cells assessed using flow cytometry (F) and pathology assessment of inflammatory cell infiltrate in the lungs alongside an additional cohort or WT non-tumor bearing mice given dual treatment for 21 days and then assessed at treatment cessation or 30 days after treatment cessation (G). Image in panel (A) was created using BioRender. Bar charts show the mean, error bars SD, and the dots show individual data points from individual tumors and mice. Line charts display the mean and SEM. Gemc.; gemcitabine. * P<0.05, ** P<0.01.
MN-MCA1 sarcoma cells were orthotopically implanted into syngeneic C57Bl/6 mice for tumors. A total of 2.5 x 10^5 cells in 100 μL RPMI were injected subcutaneously into female mice. In MMTV-PyMT mice, tumors arose spontaneously. When tumors became palpable, volumes were measured every 2-4 days using digital caliper measurements of the long (L) and short (S) dimensions of the tumor. […]

MMTV-PyMT tumors [2] = assay: Gemcitabine tumor growth in Lyve1^Cre and Lyve1^WT MMTV-PyMT Hmox1^fl/fl mice; assay type: in vivo, mouse; details: gemcitabine 6.6mg/kg/7days
From the text: Figure 1 LYVE-1^+ PvTAMs modulate the immune landscape and resistance to chemotherapy in cancer through their expression of HO-1. (A) Representative image of a frozen section of MMTV-PyMT tumor stained with DAPI (nuclei; blue) and antibodies against F4/80 (magenta), HO-1 (red), CD31 (green). Colocalizing pixels for F4/80 and HO-1 are shown in yellow. Scale bar is 50 µm. (B-E) Schematic depicting the transgene of the HO-1 reporter mice (HO-1^Luc/eGFP) (top panel) and representative dot plot of FACs-gated live (7AAD^-) cells from enzyme-dispersed MMTV-PyMT HO-1^Luc/eGFP tumors separated based on their respective expression of HO-1 (eGFP) and CD45 (bottom panel) (B). HO-1/eGFP normalized median fluorescent intensity (MFI) of the indicated tumoral cell populations with background MFI subtracted from WT mice (n=5) (C). Representative contour plot of FACs-gated live (7AAD^-), CD45^+F4/80^+ TAMs separated based on their expression of CD206 and MHCII (left) and histograms showing the HO-1/eGFP expression of the subsets alongside the background fluorescence in WT mice (right) (D). Representative histograms of the TAM populations identified in (D) for their surface expression of LYVE-1 alongside their respective fluorescence minus one (FMO) staining (E). (F) Quantitation of the respective TAM populations identified in (D) across MMTV-PyMT tumors (n=10). […]

| Compound | tumor growth (MMTV-PyMT tumors [1]) | tumor growth (MMTV-PyMT tumors [2]; Lyve1^Cre mice) | tumor growth (MMTV-PyMT tumors [2]; Lyve1^WT mice) |
| --- | --- | --- | --- |
| Sn (IV) mesoporphyrin IX dichloride [SnMP] | did not control tumor growth |  |  |
| Nc1ccn([C@@H]2O[C@H](CO)[C@@H](O)C2(F)F)c(=O)n1 [gemcitabine] |  | long-term durable control of tumor growth | insensitive |
